Results published in US8969552B2, “Arylsulfonylmethyl or arylsulfonamide substituted aromatic compounds suitable for treating disorders that respond to modulation of the dopamine D3 receptor” (AbbVie Deutschland GmbH & Co. KG, priority 2004, dated 2015).
Where a name gives a salt, the structure may show the parent alone.

What was measured:
[1] = target: T1, human dopamine D3 receptors (Homo sapiens, UniProt P35462); experiment: Dopamine D3 receptor binding, [125I]-iodosulpride displacement; settings: for Ki: membranes of HEK-293 cells stably expressing human D3 receptor, 0.1 nM [125I]-iodosulpride, 25° C., 60 minutes; for Ki(D2)*/Ki(D3)*: selectivity ratio of receptor binding constants D2 versus D3
T1 construct: expressed in transfected cells; membranes
T1 sequence (P35462 whole entry): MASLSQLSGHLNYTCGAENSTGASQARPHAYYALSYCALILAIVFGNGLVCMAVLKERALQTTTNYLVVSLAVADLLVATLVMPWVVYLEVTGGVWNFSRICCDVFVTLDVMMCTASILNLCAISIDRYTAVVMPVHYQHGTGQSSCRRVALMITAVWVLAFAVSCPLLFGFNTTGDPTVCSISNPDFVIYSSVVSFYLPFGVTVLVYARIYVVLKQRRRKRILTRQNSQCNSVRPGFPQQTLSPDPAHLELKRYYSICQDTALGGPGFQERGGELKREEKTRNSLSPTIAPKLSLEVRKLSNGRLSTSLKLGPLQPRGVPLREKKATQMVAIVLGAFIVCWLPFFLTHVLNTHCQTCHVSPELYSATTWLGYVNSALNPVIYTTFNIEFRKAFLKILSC
Protocol: (§1) The substance to be tested was either dissolved in methanol/Chremophor® (BASF-AG) or in dimethyl sulfoxide and then diluted with water to the desired concentration.
(§2) Each assay mixture was run in triplicate.
The incubation buffer contained 50 mM tris, 120 mM NaCl, 5 mM KCl, 2 mM CaCl2, 2 mM MgCl2 and 0.1% bovine serum albumin, 10 μM quinolone and 0.1% ascorbic acid (prepared fresh daily). The buffer was adjusted to pH 7.4 with HCl.
(§3) Measurement and Analysis:
(§4) After having been incubated at 25° C. for 60 minutes, the assay mixtures were filtered through a Whatman GF/B glass fiber filter under vacuum using a cell collecting device. The filters were transferred to scintillation viols using a filter transfer system. After 4 ml of Ultima Gold® (Packard) have been added, the samples were shaken for one hour and the radioactivity was then counted in a Beta-Counter (Packard, Tricarb 2000 or 2200CA). The cpm values were converted into dpm using a standard quench series and the program belonging to the instrument.
(§5) The inhibition curves were analyzed by means of iterative nonlinear regression analysis using the Statistical Analysis System (SAS) which is similar to the “LIGAND” program described by Munson and Rodbard.
(§6) The results of the receptro binding studies are expressed as receptor binding constants Ki(D2) and Ki(D3), respectively, as herein before described, and given in table 2.

[2] = target: T2, human dopamine D2L receptors (long isoform) (Homo sapiens, UniProt P14416); experiment: Dopamine D2L receptor binding, [125I] iodospiperone displacement; settings: membranes of HEK-293 cells stably expressing human D2L receptor; 0.01 nM [125I] iodospiperone; 25° C., 60 minutes; read-out: Ki(D2)*
T2 construct: expressed in transfected cells; membranes
T2 sequence (P14416 whole entry, canonical isoform): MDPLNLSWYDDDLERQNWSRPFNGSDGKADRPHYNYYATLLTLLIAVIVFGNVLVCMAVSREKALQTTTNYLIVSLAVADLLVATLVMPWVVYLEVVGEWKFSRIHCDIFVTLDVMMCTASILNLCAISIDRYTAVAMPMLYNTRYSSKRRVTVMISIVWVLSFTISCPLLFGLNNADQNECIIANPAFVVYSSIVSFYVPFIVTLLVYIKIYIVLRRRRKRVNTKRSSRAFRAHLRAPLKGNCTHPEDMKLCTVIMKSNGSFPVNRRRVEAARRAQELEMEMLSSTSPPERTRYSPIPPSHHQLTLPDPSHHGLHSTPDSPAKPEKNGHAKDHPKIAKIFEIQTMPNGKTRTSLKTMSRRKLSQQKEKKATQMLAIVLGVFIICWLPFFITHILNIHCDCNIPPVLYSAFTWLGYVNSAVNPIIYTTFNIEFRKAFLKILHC
Protocol: as §1, §2
The incubation buffer contained 50 mM tris, 120 mM NaCl, 5 mM KCl, 2 mM CaCl2, 2 mM MgCl2 and 0.1% bovine serum albumin. The buffer was adjusted to pH 7.4 with HCl.
as §3, §4, §5, §6

Compound | Ki [1] [nM] | Ki(D2)*/Ki(D3)* [1] | Ki [2] [nM]
CCCN[C@H]1CCc2cc(NS(=O)(=O)c3ccc(C(C)C(F)(F)F)cc3)ccc2C1 (mixture of isomers) [Example 40, N—((S)-6-Propylamino-5,6,7,8-tetrahydro-naphthalen-2-yl)-4-(2,2,2-trifluoro-1-methyl-ethyl)benzenesulfonamide-racemate] | 1.4 | 221 | 309
CCC(=O)N1CCC[C@@H]2Cc3cc(NS(=O)(=O)c4ccc(C(C)C)cc4)ccc3C[C@H]21 (relative stereo) [Example 22, trans-4-Isopropyl-N-(1-propionyl-1,2,3,4,4a,5,10,10a-octahydro-benzo[g]quinolin-7-yl)benzenesulfonamide] | 19 | 96 | 1830
CCCN1CCC[C@@H]2Cc3cc(NS(=O)(=O)c4ccc(C(C)C)cc4)ccc3C[C@H]21 (relative stereo) [Example 23, trans-4-Isopropyl-N-(1-propyl-1,2,3,4,4a,5,10,10a-octahydro-benzo[g]quinolin-7-yl)benzenesulfonamide] | 2.3 | 50 | 116
CCCN[C@@H]1CCc2ccc(NS(=O)(=O)c3ccc(C(C)C)cc3)cc2C1 [Example 2, (R)-4-Isopropyl-N—((R)-7-propylamino-5,6,7,8-tetrahydro-naphthalen-2-yl)benzenesulfonamide] | 14 | 32 | 442
CCCN[C@@H]1CCc2cc(NS(=O)(=O)c3ccc(C(C)C)cc3)ccc2C1 [Example 3, 4-Isopropyl-N—((R)-6-propylamino-5,6,7,8-tetrahydro-naphthalen-2-yl)-benzenesulfonamide] | 0.34 | 30 | 10.3
C=CCN[C@@H]1CCc2cc(NS(=O)(=O)c3ccc(C(C)C)cc3)ccc2C1.Cl [Example 6, N—((R)-6-Allylamino-5,6,7,8-tetrahydro-naphthalen-2-yl)-4-isopropyl-benzenesulfonamide, hydrochloride] | 0.28 | 52 | 14.5
C=CCN[C@H]1CCc2cc(NS(=O)(=O)c3ccc(C(C)C)cc3)ccc2C1.Cl [Example 7, N—((S)-6-Allylamino-5,6,7,8-tetrahydro-naphthalen-2-yl)-4-isopropyl-benzenesulfonamide, hydrochloride] | 1.97 | 77 | 152
CCCN[C@H]1CCc2cc(NS(=O)(=O)c3ccc(C(C)C)cc3)ccc2C1.Cl [Example 8, 4-Isopropyl-N—((S)-6-propylamino-5,6,7,8-tetrahydro-naphthalen-2-yl)-benzenesulfonamide, hydrochloride] | 0.5 | 102 | 50.6
C=CCN[C@H]1CCc2cc(N(C)S(=O)(=O)c3ccc(C(C)C)cc3)ccc2C1 [Example 9, N—((S)-6-Allylamino-5,6,7,8-tetrahydro-naphthalen-2-yl)-4-isopropyl-N-methylbenzenesulfonamide] | 15.3 | 27 | 416
CCCN[C@H]1CCc2cc(N(C)S(=O)(=O)c3ccc(C(C)C)cc3)ccc2C1 [Example 10, 4-Isopropyl-N-methyl-N—((S)-6-propylamino-5,6,7,8-tetrahydro-naphthalen-2-yl)benzenesulfonamide] | 8.2 | 29 | 238
CCCN[C@H]1CCc2cc(NS(=O)(=O)c3ccc(OC(F)F)cc3)ccc2C1.Cl [Example 46, 4-Difluoromethoxy-N—((S)-6-propylamino-5,6,7,8-tetrahydro-naphthalen-2-yl)benzenesulfonamide, hydrochloride] | 2.5 | 100 | –
CCCN[C@H]1CCc2cc(NS(=O)(=O)c3ccc(CC(F)(F)F)cc3)ccc2C1.Cl [Example 47, N—((S)-6-Propylamino-5,6,7,8-tetrahydro-naphthalen-2-yl)-4-(2,2,2-trifluoro-ethyl)benzenesulfonamide, hydrochloride] | 5.1 | 70 | –
CCCN[C@H]1CCc2cc(NS(=O)(=O)c3ccc(C4CC4(F)F)cc3)ccc2C1.Cl (stereo partly drawn) [Example 48, 4-(2,2-Difluoro-cyclopropyl)-N—((S)-6-propylamino-5,6,7,8-tetrahydro-naphthalen-2-yl)benzenesulfonamide, hydrochloride] | 1.5 | 128 | –
CCCN[C@H]1CCc2cc(NS(=O)(=O)c3ccc(N4CCCC4)cc3)ccc2C1.Cl [Example 49, N—((S)-6-Propylamino-5,6,7,8-tetrahydro-naphthalen-2-yl)-4-pyrrolidin-1-ylbenzenesulfonamide, hydrochloride] | 1.3 | 63 | –
CCCN[C@H]1CCc2cc(NS(=O)(=O)c3ccc(N(C)C)cc3)ccc2C1.Cl [Example 50, 4-Dimethylamino-N—((S)-6-propylamino-5,6,7,8-tetrahydro-naphthalen-2-yl)benzenesulfonamide, hydrochloride] | 1.8 | 95 | –
CCCN[C@H]1CCc2cc(NS(=O)(=O)c3ccc(CCCF)cc3)ccc2C1 [Example 51, 4-(3-Fluoro-propyl)-N—((S)-6-propylamino-5,6,7,8-tetrahydro-naphthalen-2-yl)benzenesulfonamide] | 1.7 | 56 | –
CCCN[C@H]1CCc2cc(NS(=O)(=O)c3ccc(CCC)s3)ccc2C1.Cl [Example 52, 5-Propyl-thiophene-sulfonic acid ((S)-6-propylamino-5,6,7,8-tetrahydro-naphthalen-2-yl)amide, hydrochloride] | 0.7 | 71 | –
CCCN[C@H]1CCc2cc(NS(=O)(=O)c3ccc([C@H](C)CF)cc3)ccc2C1.Cl [Example 55, 4-((S)-2-Fluoro-1-methyl-ethyl)-N—((S)-6-propylamino-5,6,7,8-tetrahydro-naphthalen-2-yl)benzenesulfonamide, hydrochloride] | 1.7 | 230 | –
CCCN[C@H]1CCc2cc(NS(=O)(=O)c3ccc([C@@H](C)CF)cc3)ccc2C1.Cl [Example 56, 4-((R)-2-Fluoro-1-methyl-ethyl)-N—((S)-6-propylamino-5,6,7,8-tetrahydro-naphthalen-2-yl)benzenesulfonamide, hydrochloride] | 2.4 | 161 | –
CCCN[C@@H]1CCc2cc(NS(=O)(=O)c3ccc(CCCF)cc3)ccc2C1.Cl [Example 58, 4-(3-Fluoro-propyl)-N—((R)-6-propylamino-5,6,7,8-tetrahydro-naphthalen-2-yl)benzenesulfonamide, hydrochloride] | 0.15 | 229 | –
CCCN[C@H]1CCc2cc(NS(=O)(=O)c3ccc(C(C)=O)cc3)ccc2C1 [Example 60, 4-Acetyl-N—((S)-6-propylamino-5,6,7,8-tetrahydro-naphthalen-2-yl)-benzenesulfonamide] | 9.4 | 274 | –
CCCN[C@H]1CCc2cc(NS(=O)(=O)c3ccc(C(C)(C)F)cc3)ccc2C1.O=C(O)C(F)(F)F [Example 62, 4-(1-Fluoro-1-methyl-ethyl)-N—((S)-6-propylamino-5,6,7,8-tetrahydro-naphthalen-2-yl)benzenesulfonamide, trifluoro acetate] | 6.2 | 77 | –
CCN[C@H]1CCc2cc(NS(=O)(=O)c3ccc(OC(F)(F)F)cc3)ccc2C1.Cl [Example 63, N—((S)-6-Ethylamino-5,6,7,8-tetrahydro-naphthalen-2-yl)-4-trifluoromethoxybenzenesulfonamide, hydrochloride] | 30.9 | 40 | –
CCN[C@H]1CCc2cc(NS(=O)(=O)c3ccc(C(C)C)cc3)ccc2C1.Cl [Example 64, N—((S)-6-Ethylamino-5,6,7,8-tetrahydro-naphthalen-2-yl)-4-isopropyl-benzenesulfonamide, hydrochloride] | 3.4 | 70 | –
CC(C)c1ccc(S(=O)(=O)Nc2ccc3c(c2)CC[C@H](NCCCF)C3)cc1.Cl [Example 68, N—[(S)-6-(3-Fluoro-propylamino)-5,6,7,8-tetrahydro-naphthalen-2-yl]-4-isopropylbenzenesulfonamide, hydrochloride] | 2 | 42 | –
CCN[C@H]1CCc2cc(NS(=O)(=O)c3ccc(N4CCCC4)cc3)ccc2C1.Cl [Example 70, N—((S)-6-Ethylamino-5,6,7,8-tetrahydro-naphthalen-2-yl)-4-pyrrolidin-1-ylbenzenesulfonamide, hydrochloride] | 3.6 | 61 | –
CCCN[C@H]1CCc2cc(NS(=O)(=O)c3ccc(OC(F)F)cc3)ccc2C1 [Example 74, 4-Difluoromethoxy-N—((S)-6-propylamino-5,6,7,8-tetrahydro-naphthalen-2-yl)benzenesulfonamide, hydrochloride] | – | – | 250
